# According to the supplement of paper PMC10307832:
# Assays:
# Test in all cases: relative viability (nuclei count vs DMSO), 5 days (fraction); higher = more cells survive
# FH535 + Bortezomib = compound: CC1=C(C=CC(=C1)[N+](=O)[O-])NS(=O)(=O)C2=C(C=CC(=C2)Cl)Cl [FH535] + CC(C)C[C@H](NC(=O)[C@H](Cc1ccccc1)NC(=O)c1cnccn1)B(O)O [Bortezomib] (partner 0.002 µM)
# Method in brief: (§1)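 Dosing by pin tool came one day after lung cancer cell lines were seeded in 1536-well plates, using either one drug or a fixed anchor-drug dose plus five library-drug doses (not always all listed) in √10 steps. After 5 days, nuclei were counted on 4× images. Relative viability is treated-well nuclei count divided by vehicle-well nuclei count, and values are medians of duplicate plates.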
# FH535 + Luminespib = compound: CC1=C(C=CC(=C1)[N+](=O)[O-])NS(=O)(=O)C2=C(C=CC(=C2)Cl)Cl [FH535] + CCNC(=O)c1noc(-c2cc(C(C)C)c(O)cc2O)c1-c1ccc(CN2CCOCC2)cc1 [Luminespib] (partner 0.01 µM)
# Method in brief: as §1
# FH535 + Foretinib = compound: CC1=C(C=CC(=C1)[N+](=O)[O-])NS(=O)(=O)C2=C(C=CC(=C2)Cl)Cl [FH535] + COc1cc2c(Oc3ccc(NC(=O)C4(C(=O)Nc5ccc(F)cc5)CC4)cc3F)ccnc2cc1OCCCN1CCOCC1 [Foretinib] (partner 0.25 µM)
# Method in brief: as §1
# FH535 + Tozasertib = compound: CC1=C(C=CC(=C1)[N+](=O)[O-])NS(=O)(=O)C2=C(C=CC(=C2)Cl)Cl [FH535] + Cc1cc(Nc2cc(N3CCN(C)CC3)nc(Sc3ccc(NC(=O)C4CC4)cc3)n2)n[nH]1 [Tozasertib] (partner 0.1 µM)
# Method in brief: as §1
# FH535 + Vorinostat = compound: CC1=C(C=CC(=C1)[N+](=O)[O-])NS(=O)(=O)C2=C(C=CC(=C2)Cl)Cl [FH535] + O=C(CCCCCCC(=O)Nc1ccccc1)NO [Vorinostat] (partner 1 µM)
# Method in brief: as §1
Cell Line,relative viability (FH535 + Bortezomib; first compound 0.04 µM),relative viability (FH535 + Bortezomib; first compound 0.1265 µM),relative viability (FH535 + Bortezomib; first compound 0.4 µM),relative viability (FH535 + Bortezomib; first compound 1.265 µM),relative viability (FH535 + Luminespib; first compound 0.04 µM),relative viability (FH535 + Luminespib; first compound 0.1265 µM),relative viability (FH535 + Luminespib; first compound 0.4 µM),relative viability (FH535 + Luminespib; first compound 1.265 µM),relative viability (FH535 + Foretinib; first compound 0.04 µM),relative viability (FH535 + Foretinib; first compound 0.1265 µM),relative viability (FH535 + Foretinib; first compound 0.4 µM),relative viability (FH535 + Foretinib; first compound 1.265 µM),relative viability (FH535 + Tozasertib; first compound 0.04 µM),relative viability (FH535 + Tozasertib; first compound 0.1265 µM),relative viability (FH535 + Tozasertib; first compound 0.4 µM),relative viability (FH535 + Tozasertib; first compound 1.265 µM),relative viability (FH535 + Vorinostat; first compound 0.04 µM),relative viability (FH535 + Vorinostat; first compound 0.1265 µM),relative viability (FH535 + Vorinostat; first compound 0.4 µM),relative viability (FH535 + Vorinostat; first compound 1.265 µM)
LOU-NH91,0.504,0.497,0.527,0.37,0.333,0.326,0.369,0.288,0.99,0.952,0.91,0.474,0.634,0.68,0.633,0.33,0.877,0.982,0.652,0.524
NCI-H358,–,–,–,–,0.325,0.368,0.293,0.308,0.647,0.727,0.63,0.481,0.0899,0.0929,0.104,0.0851,0.588,0.778,0.664,0.43
NCI-H522,–,–,–,–,1.29,1.17,1.16,0.996,–,–,–,–,0.529,0.502,0.601,0.534,0.855,0.858,0.731,0.78
NCI-H1395,–,–,–,–,0.738,0.576,0.784,0.581,0.952,0.967,0.868,0.831,0.68,0.872,0.774,0.678,0.543,0.679,0.697,0.532
NCI-H1703,0.413,0.288,0.425,0.317,–,–,–,–,0.416,–,0.324,0.344,–,–,–,–,–,–,–,–
NCI-H1792,0.971,0.932,0.835,0.688,0.441,0.433,0.436,0.263,–,–,–,–,–,–,–,–,–,–,–,–
NCI-H1793,–,–,–,–,0.168,0.229,0.19,0.143,0.347,0.775,0.798,0.458,0.305,0.297,0.353,0.213,0.505,0.519,0.63,0.568
NCI-H1944,–,–,–,–,0.672,0.82,0.727,0.669,0.855,0.922,0.882,0.857,0.237,0.265,0.234,0.236,0.291,0.575,0.425,0.509
NCI-H2170,–,–,–,–,0.726,0.606,0.661,0.426,1.06,0.96,0.988,0.891,0.674,0.772,0.69,0.697,0.713,0.816,0.768,0.69
SK-MES-1,–,–,–,–,0.814,0.907,0.797,0.56,0.918,1.05,0.963,0.814,0.952,0.954,0.751,0.658,1.1,1.19,1.02,0.918
SW 900,–,–,–,–,0.186,0.163,0.161,0.178,0.745,0.94,0.764,0.541,0.535,0.525,0.536,0.484,0.483,0.257,0.378,0.358
